Laboratory results taken from ChEMBL document CHEMBL5729068, “Inhibitors of KRAS G12C and methods of using the same” (2022).

Target: GTPase KRas (Homo sapiens, UniProt P01116, C118A/G12C)
Test: Biochemical Assay: The following assay conditions were employed: Coupled Nucleotide Exchange Assay: Purified GDP-bound KRAS protein (aa 1-169), containing both G12C and C118A amino acid substitutions and an N-terminal His-tag, was pre-incubated with a compound dose-response titration for 5 min in assay buffer (25 mM HEPES pH 7.4, 10 mM MgCl2, and 0.01% Triton X-100). Following compound pre-incubation, purified SOS protein (aa 564-1049) and GTP (Roche 10106399001) were added to the assay wells and incubated for an additional 30 min. To determine the extent of inhibition of SOS-mediated nucleotide exchange, purified GST-tagged cRAF (aa 1-149), nickel chelate AlphaLISA acceptor beads (PerkinElmer AL108R), and AlphaScreen glutathione donor beads (PerkinElmer 6765302) were added to the assay wells and incubated for 5 minutes. The assay plates were then read on a PerkinElmer EnVision Multilabel Reader, using AlphaScreen® technology, and data were analyzed using a 4-parameter logistic model to calculate IC50 values.

Sequence of GTPase KRas (P01116 whole entry G12C/C118A, the tested form may be a part): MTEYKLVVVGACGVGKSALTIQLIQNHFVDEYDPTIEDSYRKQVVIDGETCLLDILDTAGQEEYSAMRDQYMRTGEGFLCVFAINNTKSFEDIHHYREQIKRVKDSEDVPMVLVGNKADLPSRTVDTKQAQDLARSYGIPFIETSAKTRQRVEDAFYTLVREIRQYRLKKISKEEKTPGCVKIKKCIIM

**Q.** For `C=CC(=O)N1[C@H](C)CN(c2nc(=O)n(-c3c(C)ccnc3C(C)C)c3nc(-c4c(N)cccc4F)c(Cl)cc23)C[C@@H]1C` (atropisomer, axis not shown), which IC50 is on record?
**A.** The IC50 was 14 nM.
